In article PMC4505066, “Insights into the Recruitment of Class IIa Histone Deacetylases (HDACs) to the SMRT/NCoR Transcriptional Repression Complex” (The Journal of Biological Chemistry, 2015):
Read-outs that look alike come from different tables or passages of the source. One block for each molecule: values may come before it. No end group written: not given here.

Assays:
[1] = biological target: T1, HDAC4 catalytic domain (wild type) (Homo sapiens, UniProt P56524); test: Fluorescence anisotropy binding of BODIPY-TMR labeled GSI motif peptides to HDAC4
T1 construct: we purified the recombinant catalytic domains of HDACs 4, 5, 7, and 9; hexa-histidine tag (N, cleaved yes); S-tag (N, cleaved yes); made in house; host or cells: Escherichia coli Rosetta (pET30)
Experimental: Immediately prior to the fluorescence anisotropy assays the HDACs were concentrated and buffer exchanged into 1× PBS, 0.5 mM Tris(2-carboxyethyl)-phosphine and the protein concentration was determined by A280 in 6 M guanidine HCl. Protein was dispensed into 96-well black plates prior to a 2-fold serial dilution in reaction buffer (1× PBS, 0.01% Triton X-100, 0.1 mg/ml of BSA). Inhibitors were preincubated with HDACs for 30 min at a 2:1 ratio before serial dilution. Labeled peptide was added to a final concentration of 1 μM in a 50-μl reaction volume. […] Data were analyzed using GraphPad Prism, assuming non-linear fit with one-site binding to fulfill the equation y = Bmax × x/(Kd + x).

[2] = biological target: T2, H976Y gain-of-function (GOF) HDAC4 catalytic domain (Homo sapiens, UniProt P56524, H976Y); test: Fluorescence anisotropy binding of GSI peptide to H976Y gain-of-function HDAC4
T2 construct: the H976Y gain-of-function (GOF) HDAC4 catalytic domain; hexa-histidine tag (N, cleaved yes); S-tag (N, cleaved yes); made in house; host or cells: Escherichia coli Rosetta (pET30)
T2 sequence (P56524 655-1084 H976Y limits assumed): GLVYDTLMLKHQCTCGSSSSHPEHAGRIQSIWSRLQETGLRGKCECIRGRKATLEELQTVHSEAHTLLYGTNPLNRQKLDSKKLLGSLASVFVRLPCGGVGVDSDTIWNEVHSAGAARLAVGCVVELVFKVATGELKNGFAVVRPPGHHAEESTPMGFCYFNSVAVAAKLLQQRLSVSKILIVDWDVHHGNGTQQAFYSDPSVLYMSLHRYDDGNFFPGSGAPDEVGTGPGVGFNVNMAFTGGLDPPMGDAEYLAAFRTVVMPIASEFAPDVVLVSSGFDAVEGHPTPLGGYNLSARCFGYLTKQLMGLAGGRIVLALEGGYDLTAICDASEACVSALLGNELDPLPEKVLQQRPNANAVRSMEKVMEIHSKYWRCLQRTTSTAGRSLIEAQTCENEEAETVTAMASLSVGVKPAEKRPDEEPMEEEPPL
Experimental: Peptides were coupled to BODIPY-TMR by incubation in 18 MΩ water at a 5:1 molar ratio for 2 h at room temperature with continual stirring. Following incubation, buffer was exchanged into 1× PBS, 0.5 mM Tris(2-carboxyethyl)phosphine using a PD-10 column (GE Healthcare). Labeled peptides were concentrated using an Amicon centrifugal concentrator. Immediately prior to the fluorescence anisotropy assays the HDACs were concentrated and buffer exchanged into 1× PBS, 0.5 mM Tris(2-carboxyethyl)-phosphine and the protein concentration was determined by A280 in 6 M guanidine HCl. Protein was dispensed into 96-well black plates prior to a 2-fold serial dilution in reaction buffer (1× PBS, 0.01% Triton X-100, 0.1 mg/ml of BSA). Inhibitors were preincubated with HDACs for 30 min at a 2:1 ratio before serial dilution. Labeled peptide was added to a final concentration of 1 μM in a 50-μl reaction volume. […] Data were analyzed using GraphPad Prism, assuming non-linear fit with one-site binding to fulfill the equation y = Bmax × x/(Kd + x).

HDAC4cd C751A = biological target: T3, HDAC4cd C751A (Homo sapiens, UniProt P56524, C751A); test: Fluorescence anisotropy binding of GSI peptide to HDAC4 C751A mutant; settings: Fig. 3C, zinc chelating residue mutant
T3 construct: we purified the recombinant catalytic domains of HDACs 4, 5, 7, and 9; hexa-histidine tag (N, cleaved yes); S-tag (N, cleaved yes); made in house; host or cells: Escherichia coli Rosetta (pET30)
Experimental: (§1) Peptides were coupled to BODIPY-TMR by incubation in 18 MΩ water at a 5:1 molar ratio for 2 h at room temperature with continual stirring. Following incubation, buffer was exchanged into 1× PBS, 0.5 mM Tris(2-carboxyethyl)phosphine using a PD-10 column (GE Healthcare). Labeled peptides were concentrated using an Amicon centrifugal concentrator. Immediately prior to the fluorescence anisotropy assays the HDACs were concentrated and buffer exchanged into 1× PBS, 0.5 mM Tris(2-carboxyethyl)-phosphine and the protein concentration was determined by A280 in 6 M guanidine HCl. Protein was dispensed into 96-well black plates prior to a 2-fold serial dilution in reaction buffer (1× PBS, 0.01% Triton X-100, 0.1 mg/ml of BSA). Inhibitors were preincubated with HDACs for 30 min at a 2:1 ratio before serial dilution. Labeled peptide was added to a final concentration of 1 μM in a 50-μl reaction volume. Measurements were recorded using an excitation wavelength of 531 nm and emission wavelength of 595 nm. Data were analyzed using GraphPad Prism, assuming non-linear fit with one-site binding to fulfill the equation y = Bmax × x/(Kd + x).

HDAC4cd C667A = biological target: T4, HDAC4cd C667A (Homo sapiens, UniProt P56524, C667A); test: Fluorescence anisotropy binding of GSI peptide to HDAC4 C667A mutant; settings: Fig. 3C, zinc chelating residue mutant
T4 construct: we purified the recombinant catalytic domains of HDACs 4, 5, 7, and 9; hexa-histidine tag (N, cleaved yes); S-tag (N, cleaved yes); made in house; host or cells: Escherichia coli Rosetta (pET30)
Experimental: as §1

HDAC5 catalytic domain = biological target: T5, HDAC5 catalytic domain (Homo sapiens, UniProt Q9UQL6); test: Fluorescence anisotropy binding of labeled GSI peptide to HDAC5; settings: Fig. 2B, labeled wild type peptide 1 μM
T5 construct: we purified the recombinant catalytic domains of HDACs 4, 5, 7, and 9; hexa-histidine tag (N, cleaved yes); S-tag (N, cleaved yes); made in house; host or cells: Escherichia coli Rosetta (as for HDAC4)
Experimental: (§2) Wild type peptide was obtained from Biomatik. Mutant peptides were synthesized in house using a CEM microwave peptide synthesizer. Peptides for use in fluorescence anisotropy assays were synthesized with an extra N-terminal cysteine.
as §1

HDAC7 catalytic domain = biological target: T6, HDAC7 catalytic domain (Homo sapiens, UniProt Q8WUI4); test: Fluorescence anisotropy binding of labeled GSI peptide to HDAC7; settings: Fig. 2B, labeled wild type peptide 1 μM
T6 construct: we purified the recombinant catalytic domains of HDACs 4, 5, 7, and 9; hexa-histidine tag (N, cleaved yes); S-tag (N, cleaved yes); made in house; host or cells: Escherichia coli Rosetta (as for HDAC4)
T6 sequence (Q8WUI4 512-865 limits assumed): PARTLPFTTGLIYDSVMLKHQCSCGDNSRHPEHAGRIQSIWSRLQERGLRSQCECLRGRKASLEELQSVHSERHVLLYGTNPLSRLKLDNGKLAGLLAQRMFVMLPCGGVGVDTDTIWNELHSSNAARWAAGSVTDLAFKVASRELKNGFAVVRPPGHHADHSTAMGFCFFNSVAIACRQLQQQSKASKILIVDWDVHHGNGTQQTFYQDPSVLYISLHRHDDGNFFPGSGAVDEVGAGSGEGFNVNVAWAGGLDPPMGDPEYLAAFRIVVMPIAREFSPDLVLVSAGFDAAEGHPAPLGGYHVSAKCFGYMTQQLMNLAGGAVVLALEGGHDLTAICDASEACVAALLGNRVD
Experimental: as §2, §1

HDAC4cd H675A = biological target: T7, HDAC4cd H675A (Homo sapiens, UniProt P56524, H675A); test: Fluorescence anisotropy binding of GSI peptide to HDAC4 H675A mutant; settings: Fig. 3C, zinc chelating residue mutant
T7 construct: we purified the recombinant catalytic domains of HDACs 4, 5, 7, and 9; hexa-histidine tag (N, cleaved yes); S-tag (N, cleaved yes); made in house; host or cells: Escherichia coli Rosetta (pET30)
Experimental: as §1

HDAC9 catalytic domain = biological target: T8, HDAC9 catalytic domain (Homo sapiens, UniProt Q9UKV0); test: Fluorescence anisotropy binding of labeled GSI peptide to HDAC9; settings: Fig. 2B, labeled wild type peptide 1 μM
T8 construct: we purified the recombinant catalytic domains of HDACs 4, 5, 7, and 9; hexa-histidine tag (N, cleaved yes); S-tag (N, cleaved yes); made in house; host or cells: Escherichia coli Rosetta (as for HDAC4)
Experimental: as §2, §1

full-length HDAC8 = biological target: T9, full-length HDAC8 (Homo sapiens, UniProt Q9BY41); test: Fluorescence anisotropy binding of labeled GSI peptide to HDAC8; settings: Fig. 2B, class I HDAC8 control, labeled wild type peptide 1 μM
T9 construct: along with full-length HDAC8 as an intrinsically active class I HDAC control; made in house
T9 sequence (Q9BY41 1-377): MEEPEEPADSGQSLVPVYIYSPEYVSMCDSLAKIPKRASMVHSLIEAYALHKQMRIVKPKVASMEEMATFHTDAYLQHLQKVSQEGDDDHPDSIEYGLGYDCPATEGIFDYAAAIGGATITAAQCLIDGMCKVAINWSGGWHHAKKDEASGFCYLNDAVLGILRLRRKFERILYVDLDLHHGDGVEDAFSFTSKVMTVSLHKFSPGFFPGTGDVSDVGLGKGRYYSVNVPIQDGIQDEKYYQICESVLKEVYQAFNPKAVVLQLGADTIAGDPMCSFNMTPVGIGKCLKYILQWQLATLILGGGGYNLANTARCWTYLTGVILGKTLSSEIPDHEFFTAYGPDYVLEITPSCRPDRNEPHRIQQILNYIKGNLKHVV
Experimental: as §2, §1

[3] = Fig. 2A, fluorescence anisotropy, BODIPY-TMR labeled peptide 1 μM, HDAC4 2-fold serial dilution, one-site binding fit, read-out: Kd

T1 sequence (P56524 655-1084 limits assumed): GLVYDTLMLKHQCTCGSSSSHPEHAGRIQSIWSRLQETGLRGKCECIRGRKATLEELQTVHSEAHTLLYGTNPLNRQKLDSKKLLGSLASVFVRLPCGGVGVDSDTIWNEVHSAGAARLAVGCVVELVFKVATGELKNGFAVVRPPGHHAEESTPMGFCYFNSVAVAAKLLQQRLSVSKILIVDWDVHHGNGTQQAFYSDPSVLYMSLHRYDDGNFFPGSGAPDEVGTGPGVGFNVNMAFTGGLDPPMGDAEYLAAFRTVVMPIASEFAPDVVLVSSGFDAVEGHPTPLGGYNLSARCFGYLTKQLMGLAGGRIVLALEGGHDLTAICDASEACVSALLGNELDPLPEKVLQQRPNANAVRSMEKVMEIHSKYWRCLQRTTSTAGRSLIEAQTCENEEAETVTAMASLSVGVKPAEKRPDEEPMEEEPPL
T3 sequence (P56524 655-1084 C751A limits assumed): as the sequence (P56524 655-1084 limits assumed) above, with C97A counted along it
T7 sequence (P56524 655-1084 H675A limits assumed): as the sequence (P56524 655-1084 limits assumed) above, with H21A counted along it
T5 sequence (Q9UQL6 684-1028 limits assumed, species assumed): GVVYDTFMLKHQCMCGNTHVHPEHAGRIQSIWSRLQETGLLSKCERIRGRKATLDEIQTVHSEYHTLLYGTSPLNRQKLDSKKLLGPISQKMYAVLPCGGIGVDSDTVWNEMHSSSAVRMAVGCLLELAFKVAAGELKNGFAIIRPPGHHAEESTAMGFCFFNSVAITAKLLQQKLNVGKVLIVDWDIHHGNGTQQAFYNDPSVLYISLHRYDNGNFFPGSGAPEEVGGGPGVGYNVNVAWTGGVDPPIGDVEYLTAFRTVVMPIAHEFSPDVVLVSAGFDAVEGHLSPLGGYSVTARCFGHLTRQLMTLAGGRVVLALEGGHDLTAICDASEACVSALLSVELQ
T8 sequence (Q9UKV0 631-978 limits assumed, species assumed): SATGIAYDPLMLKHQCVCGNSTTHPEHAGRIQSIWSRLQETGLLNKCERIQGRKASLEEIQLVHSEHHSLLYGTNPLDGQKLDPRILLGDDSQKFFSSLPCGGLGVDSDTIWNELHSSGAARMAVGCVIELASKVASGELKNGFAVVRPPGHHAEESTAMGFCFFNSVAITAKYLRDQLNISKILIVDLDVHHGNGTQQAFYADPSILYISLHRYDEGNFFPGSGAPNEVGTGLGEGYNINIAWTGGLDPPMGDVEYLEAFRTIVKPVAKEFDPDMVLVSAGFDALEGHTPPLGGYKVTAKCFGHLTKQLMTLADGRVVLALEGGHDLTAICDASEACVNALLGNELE
T4 sequence (P56524 655-1084 C667A limits assumed): as the sequence (P56524 655-1084 limits assumed) above, with C13A counted along it

Kd [1, 3]: 14.4 ± 4.26 µM
Molecule: CPRPLKEGSIAQGTPLKYDTG [T4A]

Molecule: CCCC(=O)[O-].[Na+] [Sodium Butyrate, sodium butyrate, reference compound]
Kd ([1]; Fig. 4A, wild type HDAC4 catalytic domain preincubated 30 min with 2-fold molar excess of the named inhibitor, Kd is that of the labeled GSI peptide, read-out: WT Kd of the GSI peptide in the presence of the HDAC inhibitor): 4.61 ± 0.26 µM
Kd ([2]; Fig. 4A, H976Y GOF HDAC4 catalytic domain preincubated 30 min with 2-fold molar excess of the named inhibitor, Kd is that of the labeled GSI peptide, read-out: GOF Kd of the GSI peptide in the presence of the HDAC inhibitor): 2.53 ± 0.24 µM

Kd [1, 3]: 16.9 ± 8.73 µM
Molecule: CPRPLKEGSIVQGTPLKYDTG [T4V]

Kd [1, 3]: 5.47 ± 0.57 µM
Molecule: CPRPLKEGSITAGTPLKYDTG [Q5A]

maximum polarization of GSI peptide binding in the presence of inhibitor ([1]; wild type HDAC4, 2-fold molar excess of inhibitor): lower maximum polarization
Molecule: O=C(CCCCCCC(=O)Nc1ccccc1)NO [SAHA, suberoylanilide hydroxamic acid, reference compound]

Kd [1, 3]: 17.7 ± 1.4 µM
Molecule: CPRPLKEGSITEGTPLKYDTG [Q5E]

Kd (HDAC4cd C751A): > 1000 µM
Kd (HDAC4cd C667A): > 1000 µM
Kd (HDAC5 catalytic domain): 4.24 ± 0.59 µM
Kd (HDAC7 catalytic domain): 4.44 ± 0.44 µM
Kd (HDAC4cd H675A): > 1000 µM
Kd (HDAC9 catalytic domain): 8.34 ± 1.07 µM
Kd ([1]; Fig. 4A, wild type HDAC4 catalytic domain, DMSO, read-out: WT Kd): 3.22 ± 0.2 µM
Kd ([1]; Fig. 4A, wild type HDAC4 catalytic domain, No Inhibitor, read-out: WT Kd): 4.73 ± 0.31 µM
Kd (full-length HDAC8): no interaction
Kd (full-length HDAC8; read-out: Kd): > 1000 µM
Kd ([2]; Fig. 4A, H976Y GOF HDAC4 catalytic domain, DMSO, read-out: GOF Kd): 2.94 ± 0.15 µM
Kd ([2]; Fig. 4A, H976Y GOF HDAC4 catalytic domain, No Inhibitor, read-out: GOF Kd): 1.76 ± 0.18 µM
Molecule: CC[C@H](C)[C@H](NC(=O)[C@H](CO)NC(=O)CNC(=O)[C@H](CCC(=O)O)NC(=O)[C@H](CCCCN)NC(=O)[C@H](CC(C)C)NC(=O)[C@@H]1CCCN1C(=O)[C@H](CCCNC(=N)N)NC(=O)[C@@H]1CCCN1C(=O)[C@@H](N)CS)C(=O)N[C@H](C(=O)N[C@@H](CCC(N)=O)C(=O)NCC(=O)N[C@H](C(=O)N1CCC[C@H]1C(=O)N[C@@H](CC(C)C)C(=O)N[C@@H](CCCCN)C(=O)N[C@@H](Cc1ccc(O)cc1)C(=O)N[C@@H](CC(=O)O)C(=O)N[C@H](C(=O)NCC(=O)O)[C@@H](C)O)[C@@H](C)O)[C@@H](C)O [WT]

Kd [1, 3]: 47 ± 12.3 µM
Molecule: CPRPLKEGSITQGTALKYDTG [P8A]

Kd ([1]; read-out: WT Kd of the GSI peptide in the presence of the HDAC inhibitor): 3.38 ± 0.24 µM
Kd ([2]; read-out: GOF Kd of the GSI peptide in the presence of the HDAC inhibitor): 2.62 ± 0.18 µM
Molecule: CCCC(CCC)C(=O)O [Valproic Acid, valproic acid, reference compound]
